# Laboratory results from patent publication US20190134005A1 (BioMarin Pharmaceutical Inc., priority 2016, published 2019).
# pIC50: −log10 of the molar value.
# Target: T1, human CGT (Homo sapiens, UniProt Q16880)
# T1 sequence (Q16880 21-541): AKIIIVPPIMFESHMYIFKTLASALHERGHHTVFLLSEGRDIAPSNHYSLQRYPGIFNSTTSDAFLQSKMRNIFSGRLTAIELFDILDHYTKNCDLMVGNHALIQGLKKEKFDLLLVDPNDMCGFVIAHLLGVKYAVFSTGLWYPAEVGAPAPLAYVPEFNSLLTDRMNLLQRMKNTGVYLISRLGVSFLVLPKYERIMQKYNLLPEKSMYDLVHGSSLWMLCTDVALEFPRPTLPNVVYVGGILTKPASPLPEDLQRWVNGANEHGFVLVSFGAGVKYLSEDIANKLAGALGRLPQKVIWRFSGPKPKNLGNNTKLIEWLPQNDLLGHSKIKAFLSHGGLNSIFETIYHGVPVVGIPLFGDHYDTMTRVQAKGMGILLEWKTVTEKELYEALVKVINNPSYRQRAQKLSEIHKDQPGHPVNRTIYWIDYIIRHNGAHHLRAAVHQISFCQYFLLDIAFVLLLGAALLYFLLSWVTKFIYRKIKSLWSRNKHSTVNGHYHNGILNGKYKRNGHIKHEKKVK
# Assay: Assay 1: CGT Enzymatic Assay (RapidFire/MS/MS, 0.01% Tween 80)
# Type: biochemical
# Conditions: Table 1, Compounds of Formula (I) and Formula (II); CGT enzymatic assay, C6-NBD-dihydro-galactosylceramide readout; read-out: IC50
row,pIC50,SMILES
1,> 6.00,"COC[C@@]1(C)N(c2ccc(Cl)cc2)C(=O)N(c2ccc(Cl)cc2)C1(O)c1cccc(C#N)c1 (single isomer, unassigned) [Compound 297-1]"
2,> 6.00,"O=C1N(c2ccc(Cl)cc2)C2(COC2)C(O)(c2sccc2Br)N1c1ccc(Cl)cc1 (stereo not drawn) [Example 310, 8-(3-bromothiophen-2-yl)-5,7-bis(4-chlorophenyl)-8-hydroxy-2-oxa-5,7-diazaspiro[3.4]octan-6-one]"
3,> 6.00,"CC(F)(F)c1cccc(C2(O)N(c3ccc(Cl)cc3)C(=O)N(c3ccc(Cl)cc3)C23COC3)c1 (stereo not drawn) [Compound 271, 5,7-bis(4-chlorophenyl)-8-(3-(1,1-difluoroethyl)phenyl)-8-hydroxy-2-oxa-5,7-diazaspiro[3.4]octan-6-one]"
4,> 6.00,"N#Cc1ccc(N2C(=O)N(c3ccc(C#N)cc3)C(O)(c3cccc(OC(F)(F)F)c3)C23CCC3)cc1 (stereo not drawn) [Compound 293, 4,4′-(8-hydroxy-6-oxo-8-(3-(trifluoromethoxy)phenyl)-5,7-diazaspiro[3.4]octane-5,7-diyl)dibenzonitrile]"
5,> 6.00,"Cc1ccc(N2C(=O)N(c3ccc(Cl)cc3)C3(COC3)C2(O)c2cccc(OC(F)(F)F)c2)cc1 (stereo not drawn) [Compound 299, 5-(4-chlorophenyl)-8-hydroxy-7-(p-tolyl)-8-(3-(trifluoromethoxy)phenyl)-2-oxa-5,7-diazaspiro[3.4]octan-6-one]"
6,> 6.00,"Cc1ccc(N2C(=O)N(c3ccc(C)cc3)C(O)(c3cccc(C#N)c3)C23COC3)cc1 (stereo not drawn) [Compound 287, 3-(8-hydroxy-6-oxo-5,7-di-p-tolyl-2-oxa-5,7-diazaspiro[3.4]octan-8-yl)benzonitrile]"
7,5.00 to 6.00,"COc1ccc(N2C(=O)N(c3ccc(OC)cc3)C(O)(c3cccc(C#N)c3)C2(C)C)cc1 (stereo not drawn) [Example 328, 3-(4-hydroxy-1,3-bis(4-methoxyphenyl)-5,5-dimethyl-2-oxoimidazolidin-4-yl)benzonitrile]"

# Same assay, conditions: Table 1, Compounds of Formula (I) and Formula (II); CGT enzymatic assay; read-out: IC50
row,pIC50,SMILES
1,4.30 to 5.00,"Cc1cccc([C@@]2(C)C(O)N(c3ccc(Cl)cc3)C(=O)N2c2ccc(Cl)cc2)c1 (single isomer, unassigned) [Example 222-1]"
2,> 6.00,"CCCC[C@H]1N(c2ccc(Cl)cc2)C(=O)N(c2ccc(Cl)cc2)C1(O)c1cccc(C#N)c1 (stereo partly drawn) [Compound 116-2, 3-((5R)-5-butyl-1,3-bis(4-chlorophenyl)-4-hydroxy-2-oxoimidazolidin-4-yl)benzonitrile]"
3,> 6.00,"COc1cccc([C@]2(C)C(O)N(c3ccc(Br)cc3)C(=O)N2c2ccc(Br)cc2)c1 (single isomer, unassigned) [Compound 126-2]"
4,> 6.00,"O=C1N(c2ccc(Br)cc2)C(O)[C@](c2ccccc2)(C2CC2)N1c1ccc(Br)cc1 (stereo partly drawn) [Example 209-2, (4R)-1,3-bis(4-bromophenyl)-4-cyclopropyl-5-hydroxy-4-phenylimidazolidin-2-one]"
5,> 6.00,"C[C@H]1N(c2ccc(C#N)cc2)C(=O)N(c2ccc(C#N)cc2)C1(O)c1cccc(OC(F)(F)F)c1 (stereo partly drawn) [Example 180-2, 4,4′-((5R)-4-hydroxy-5-methyl-2-oxo-4-(3-(trifluoromethoxy)phenyl)imidazolidine-1,3-diyl)dibenzonitrile]"
6,5.00 to 6.00,"CC[C@@H]1N(c2ccc(F)cc2)C(=O)N(c2ccc(F)cc2)C1(O)c1cccc(C#N)c1 (stereo partly drawn) [Compound 123-1, 3-((5S)-5-ethyl-1,3-bis(4-fluorophenyl)-4-hydroxy-2-oxoimidazolidin-4-yl)benzonitrile]"
7,4.30 to 5.00,"C[C@]1(c2cccc(C(F)(F)F)c2)C(O)N(c2ccc(Br)cc2)C(=O)N1c1ccc(Br)cc1 (stereo partly drawn) [Example 219-1, (4S)-1,3-bis(4-bromophenyl)-5-hydroxy-4-methyl-4-(3-(trifluoromethyl)phenyl)imidazolidin-2-one]"
8,> 6.00,"CC[C@H]1N(c2ccc(Cl)cc2)C(=O)N(c2ccc(Cl)cc2)C1(O)c1cccc(C#N)c1 (single isomer, unassigned) [Compound 106-2]"
9,> 6.00,"COC[C@H]1N(c2ccc(Cl)cc2)C(=O)N(c2ccc(Cl)cc2)C1(O)c1cccc(OC(F)F)c1 (stereo partly drawn) [Compound 238-2, (5R)-1,3-bis(4-chlorophenyl)-4-(3-(difluoromethoxy)phenyl)-4-hydroxy-5-(methoxymethyl)imidazolidin-2-one]"

# Further lines, the compound ahead of its results:
row,SMILES,pIC50
1,"COc1ccc(C2(O)C(=O)N(c3ccc(Br)cc3)C(=O)N2c2ccc(Br)cc2)cn1 (stereo not drawn) [Example 202, 1,3-bis(4-bromophenyl)-5-hydroxy-5-(6-methoxypyridin-3-yl)imidazolidine-2,4-dione]",4.30 to 5.00
2,"O=C1N(c2ccc(Br)cc2)C(=O)C(O)(c2cccc3ccccc23)N1c1ccc(Br)cc1 (stereo not drawn) [Example 195, 1,3-bis(4-bromophenyl)-5-hydroxy-5-(naphthalen-1-yl)imidazolidine-2,4-dione]",< 4.30
3,CCCC1N(c2ccc(Br)cc2)C(=O)N(c2ccc(Br)cc2)C1(O)c1ccccc1 (stereo not drawn) [Compound 51],> 6.00
4,"O=C1N(c2ccc(Cl)cc2)C2(CCOC2)C(O)(c2cccc(OC(F)(F)F)c2)N1c1ccc(Cl)cc1 (stereo not drawn) [Compound 234, 1,3-bis(4-chlorophenyl)-4-hydroxy-4-(3-(trifluoromethoxy)phenyl)-7-oxa-1,3-diazaspiro[4.4]nonan-2-one]",> 6.00
5,"N#Cc1cccc(C2(O)N(c3ccc(C(F)(F)F)cc3)C(=O)N(c3ccc(C(F)(F)F)cc3)C23CCC3)c1 (stereo not drawn) [Example 212, 3-(8-hydroxy-6-oxo-5,7-bis(4-(trifluoromethyl)phenyl)-5,7-diazaspiro[3.4]octan-8-yl)benzonitrile]",> 6.00
6,"CCc1cccc(C2(O)CN(c3ccc(Br)cc3)C(=O)N2c2ccc(Br)cc2)c1 (stereo not drawn) [Example 47, 1,3-bis(4-bromophenyl)-4-(3-ethylphenyl)-4-hydroxyimidazolidin-2-one]",5.00 to 6.00
7,"N#Cc1cccc(C2(O)N(c3ccc(Cl)cc3)C(=O)N(c3ccc(Cl)cc3)C23CC3)c1 (stereo not drawn) [Example 226, 3-(4,6-bis(4-chlorophenyl)-7-hydroxy-5-oxo-4,6-diazaspiro[2.4]heptan-7-yl)benzonitrile]",> 6.00
8,"CCCCOc1ccc(C2(O)C(=O)N(c3ccc(Br)cc3)C(=O)N2c2ccc(Br)cc2)cc1 (stereo not drawn) [Example 182, 1,3-bis(4-bromophenyl)-5-(4-butoxyphenyl)-5-hydroxyimidazolidine-2,4-dione]",< 4.30
9,"CC(C)C1(c2cccc(OC(F)(F)F)c2)C(O)N(c2ccc(Cl)cc2)C(=O)N1c1ccc(Cl)cc1 (stereo not drawn) [Example 220, 1,3-bis(4-chlorophenyl)-5-hydroxy-4-isopropyl-4-(3-(trifluoromethoxy)phenyl)imidazolidin-2-one]",> 6.00
10,"N#Cc1cccc(C2(O)N(c3ccc(Cl)cc3)C(=O)N(c3ccc(Cl)cc3)C23COC3)c1 (stereo not drawn) [Compound 151, 3-(5,7-bis(4-chlorophenyl)-8-hydroxy-6-oxo-2-oxa-5,7-diazaspiro[3.4]octan-8-yl)benzonitrile]",> 6.00
11,"CCC1N(c2ccc(Br)cc2)C(=O)N(c2ccc(Br)cc2)C1(O)c1cccc(OC(F)(F)F)c1 (stereo not drawn) [Compound 83, 1,3-bis(4-bromophenyl)-5-ethyl-4-hydroxy-4-(3-(trifluoromethoxy)phenyl)imidazolidin-2-one]",> 6.00
12,"CC1N(c2ccc(Cl)cc2)C(=O)N(c2ccc(Cl)cc2)C1(O)c1cccc(OC(F)(F)F)c1 (stereo not drawn) [Compound 129, 1,3-bis(4-chlorophenyl)-4-hydroxy-5-methyl-4-(3-(trifluoromethoxy)phenyl)imidazolidin-2-one]",> 6.00
13,"O=C1N(c2ccc(Br)cc2)C(=O)C(O)(c2ccc(F)cc2)N1c1ccc(Br)cc1 (stereo not drawn) [Example 172, 1,3-bis(4-bromophenyl)-5-(4-fluorophenyl)-5-hydroxyimidazolidine-2,4-dione]",4.30 to 5.00
14,"Cc1ccc(N2C(=O)N(c3ccc(C)cc3)C(O)(c3cccc(OC(F)(F)F)c3)C2C(C)C)cc1 (stereo not drawn) [Compound 235, 4-hydroxy-5-isopropyl-1,3-di-p-tolyl-4-(3-(trifluoromethoxy)phenyl)imidazolidin-2-one]",> 6.00
15,"CCc1ccc(N2C(=O)N(c3ccc(CC)cc3)C(O)(c3cccc(C#N)c3)[C@@H]2C)cc1 (single isomer, unassigned) [Compound 104-1]",4.30 to 5.00
16,"O=C1N(c2cccc(Br)c2)C(=O)C(O)(c2ccccc2)N1c1cccc(Br)c1 (stereo not drawn) [Example 181, 1,3-bis(3-bromophenyl)-5-hydroxy-5-phenylimidazolidine-2,4-dione]",4.00 to 4.30
17,"O=C1N(c2ccc(F)cc2)C(=O)C(O)(c2ccccc2)N1c1ccc(F)cc1 (stereo not drawn) [Example 161, 1,3-bis(4-fluorophenyl)-5-hydroxy-5-phenylimidazolidine-2,4-dione]",< 4.30
18,"O=C1N(c2ccc(Cl)cc2)C2(CCC2)C(O)(c2cccc(OC(F)(F)F)c2)N1c1ccc(Cl)cc1 (stereo not drawn) [Compound 242, 5,7-bis(4-chlorophenyl)-8-hydroxy-8-(3-(trifluoromethoxy)phenyl)-5,7-diazaspiro[3.4]octan-6-one]",> 6.00
19,"CCCC1N(c2ccc(Cl)cc2)C(=O)N(c2ccc(Cl)cc2)C1(O)c1cccc(CC)c1 (stereo not drawn) [Compound 89, 1,3-bis(4-chlorophenyl)-4-(3-ethylphenyl)-4-hydroxy-5-propylimidazolidin-2-one]",> 6.00
20,"CCc1c(-c2cccc(C#N)c2)n(-c2ccc(F)cc2)c(=O)n1-c1ccc(F)cc1 [Compound 252, 3-(5-ethyl-1,3-bis(4-fluorophenyl)-2-oxo-2,3-dihydro-1H-imidazol-4-yl)benzonitrile]",5.00 to 6.00
